Columns and labels:
[1] = tested on: NFκB; assay: NFκB agonist assay in A549 SPAP cells; format: cell-based; conditions: Homo sapiens; for Emax: A549, A549 SPAP cells, >85% = full agonist, ≧20% = partial or full agonist, read-out: average maximum asymptote in the NFkB assay; for IC50: A549 SPAP cells, TNFα 3.2 ng/ml, read-out: pIC50 for the NFkB assay (converted);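 as to average maximum asymptote in the NFkB assay: maximum inhibition of the TNFα-induced NFκB-driven signal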
From the text: Human lung carcinoma A549 cell line (ECACC No. 86012804) has been stably transfected in house with a plasmid containing an ELAM promoter sequence that has a NFκB response element within it. Stimulation of the cell line with TNFα results in intracellular signal transduction and ultimately translocation of NFκB into the nucleus. This activates the inserted DNA sequence resulting in transcription of the integrated SPAP gene, which is quantified using a colorimetric assay. […] The stably transfected cell line was grown as a monolayer in DMEM supplemented with FCS-HI (10%), Non-essential amino acids (1%), L-Glutamine (2 mM), Pen/Strep (1%) and Geneticin (50 mg/ml).
A 70% confluent T225 flask of A549 SPAP cells was harvested by centrifugation for 5 min at 200 g, resuspended in assay buffer (DMEM supplemented with 10% FCS 2×HI, 2 mM L-Glutamine, 1% Pen/Strep and Non essential amino acids) and diluted to 0.16×10^6/ml. 60 μl of cell solution was dispensed to each well of clear Nunc 384-well plates, containing compound at the required concentration. Plates were incubated for 1 h at 37° C., 95% humidity, 5% CO2 before 10 μl of TNFα was added at final concentration of 3.2 ng/ml and then returned to the cell incubator for 15 h. Plates were equilibrated to room temperature for 1 h prior to the addition of 25 μl of pNPP buffer (1M Diethanolamine pH 9.8, 0.5 mM MgCl2, 0.28M NaCl, 2 mg/ml pNPP) to each well of assay plates. The plates were covered to protect the reagents from light, and then incubated at room temperature for approximately 1 hour before reading them on an Ascent using a 405 nm single filter. Dose response curves were constructed from which pIC50 values were estimated.

[2] = tested on: MMTV promoter; assay: MMTV agonist assay in A549 MMTV cells; format: cell-based; conditions: Homo sapiens, A549, 6 h, >85% = full agonist, >20% and <85% = partial or efficacy selective agonist, read-out: average maximum asymptote in the MMTV agonist assay
From the text: Human lung carcinoma A549 cell line (ECACC No. 86012804) has been stably transfected in house with a plasmid containing a renilla luciferase reporter with an MMTV promoter. Stimulation of the cell line with GR agonists results in intracellular signal transduction and ultimately translocation of GR into the nucleus. This activates the inserted DNA sequence resulting in transcription of the integrated luciferase gene, which is quantified using a light emission. The stably transfected cell line was grown as a monolayer in DMEM supplemented with FCS-HI (10%), Non-essential amino acids (1%), L-Glutamine (2 mM), Pen/Strep (1%) and Geneticin (50 mg/ml).
A 90% confluent T175 flask of A549 MMTV cells was harvested by centrifugation for 5 min at 200 g, resuspended in assay buffer (DMEM supplemented with 10% FCS 2×HI, 2 mM Glutamax, Non essential amino acids and 25 mM HEPES) and diluted to 0.1×10^6/ml. 70 μl of cell solution was dispensed to each well of white Nunc 384-well plates, containing compound at the required concentration. Plates were incubated for 6 h at 37° C., 95% humidity, 5% CO2. Plates were equilibrated to room temperature for 1 h prior to the addition of 10 μl of Renilla substrate to each well of assay plates. The plates were covered to protect the reagents from light, and then incubated at room temperature for approximately 15 mins before reading them on a Viewlux. Dose response curves were constructed from which pEC50 and maximum asymptote values were estimated.

[3] = target: T1, glucocorticoid receptor (Homo sapiens, UniProt P04150); assay: Glucocorticoid receptor binding assay (fluorescence polarisation); conditions: competition with Alexa 555 fluorescently-labelled dexamethasone derivative, full length glucocorticoid receptor; read-out: glucocorticoid binding pIC50 (converted)
T1 construct: a partially purified full length glucocorticoid receptor
T1 sequence (P04150 1-777): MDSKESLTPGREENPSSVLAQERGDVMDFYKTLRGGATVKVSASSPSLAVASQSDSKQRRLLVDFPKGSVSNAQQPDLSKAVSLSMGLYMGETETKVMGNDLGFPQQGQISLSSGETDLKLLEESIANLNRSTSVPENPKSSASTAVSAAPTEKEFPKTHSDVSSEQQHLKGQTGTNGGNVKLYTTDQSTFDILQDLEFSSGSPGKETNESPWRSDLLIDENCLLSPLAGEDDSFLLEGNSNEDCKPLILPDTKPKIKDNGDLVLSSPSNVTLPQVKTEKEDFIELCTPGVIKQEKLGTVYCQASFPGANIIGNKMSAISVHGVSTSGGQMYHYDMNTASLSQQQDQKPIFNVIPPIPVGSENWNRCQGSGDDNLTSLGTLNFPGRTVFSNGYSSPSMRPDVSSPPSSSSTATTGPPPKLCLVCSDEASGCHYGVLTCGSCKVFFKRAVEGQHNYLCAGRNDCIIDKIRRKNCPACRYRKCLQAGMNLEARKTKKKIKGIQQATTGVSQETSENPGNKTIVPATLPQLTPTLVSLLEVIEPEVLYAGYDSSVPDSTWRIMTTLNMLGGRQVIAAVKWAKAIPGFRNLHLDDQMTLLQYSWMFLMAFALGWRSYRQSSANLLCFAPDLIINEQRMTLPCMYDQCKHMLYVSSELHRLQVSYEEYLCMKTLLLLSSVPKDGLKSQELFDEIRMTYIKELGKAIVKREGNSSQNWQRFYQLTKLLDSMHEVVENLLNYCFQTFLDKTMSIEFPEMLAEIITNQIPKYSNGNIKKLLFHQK
Description: Compounds were solvated and diluted in DMSO, and transferred directly into assay plates. Fluorescent dexamethasone and a partially purified full length glucocorticoid receptor were added to the plates, together with buffer components to stabilise the GR protein and incubated at room temperature for 2 hrs in the dark. Binding of each compound was assessed by analysing the displacement of fluorescent ligand by measuring the decrease in fluorescence polarisation signal from the mixture. Dose response curves were constructed from which pIC50 values were estimated.

[4] = Assay for brain penetrance; format: in vivo; conditions: brain and plasma, rat, single intravenous dose 1 mg/kg, read-out: brain to plasma ratio
Description: Each rat received a single intravenous dose at a level of 1 mg/kg. The dose was formulated in 10% DMSO/50% PEG200/40% sterile water. Terminal blood samples were taken at 5 or 15 minutes after dosing, by cardiac puncture following anaesthesia with isofluorane. The brains were removed at the same time point.
The compounds were extracted from 20 μL plasma by protein precipitation using 120 μL acetonitrile containing an analogue compound as an internal standard. The filtered extracts were collected into a 96 well plate and were diluted with an equal volume of 10% acetonitrile containing 0.1% formic acid in water (v/v). The plate was then mixed on a plate shaker for at least 5 minutes before analysis by LC-MS/MS against a calibration line prepared in control plasma.
Each brain was weighed, then homogenised in 3 ml acetonitrile:water (10:90 v/v). The compounds were extracted from 200 μL of the resulting homogenate by protein precipitation using 600 μL acetonitrile containing an analogue compound as an internal standard. The extracts were centrifuged and 150 μl of each was filtered and transferred to a 96 well plate. The aliquot was diluted with 10% acetonitrile containing 0.1% formic acid in water (v/v). The plate was mixed on a plate shaker for at least 5 minutes before analysis by LC-MS/MS against a calibration line prepared in control brain homogenate.

[5] = target: T2, progesterone receptor (Homo sapiens, UniProt P06401); assay: Assay for progesterone receptor activity (CV-1 cells, PRb-BacMam/MMTV-BacMam); format: cell-based; conditions: CV-1 cells transduced with PRb-BacMam and MMTV-BacMam; read-out: pEC50 progesterone receptor activity (converted)
T2 construct: expressed in transfected cells; host or cells: CV-1 cells transduced with PRb-BacMam and MMTV-BacMam
T2 sequence (P06401 1-933): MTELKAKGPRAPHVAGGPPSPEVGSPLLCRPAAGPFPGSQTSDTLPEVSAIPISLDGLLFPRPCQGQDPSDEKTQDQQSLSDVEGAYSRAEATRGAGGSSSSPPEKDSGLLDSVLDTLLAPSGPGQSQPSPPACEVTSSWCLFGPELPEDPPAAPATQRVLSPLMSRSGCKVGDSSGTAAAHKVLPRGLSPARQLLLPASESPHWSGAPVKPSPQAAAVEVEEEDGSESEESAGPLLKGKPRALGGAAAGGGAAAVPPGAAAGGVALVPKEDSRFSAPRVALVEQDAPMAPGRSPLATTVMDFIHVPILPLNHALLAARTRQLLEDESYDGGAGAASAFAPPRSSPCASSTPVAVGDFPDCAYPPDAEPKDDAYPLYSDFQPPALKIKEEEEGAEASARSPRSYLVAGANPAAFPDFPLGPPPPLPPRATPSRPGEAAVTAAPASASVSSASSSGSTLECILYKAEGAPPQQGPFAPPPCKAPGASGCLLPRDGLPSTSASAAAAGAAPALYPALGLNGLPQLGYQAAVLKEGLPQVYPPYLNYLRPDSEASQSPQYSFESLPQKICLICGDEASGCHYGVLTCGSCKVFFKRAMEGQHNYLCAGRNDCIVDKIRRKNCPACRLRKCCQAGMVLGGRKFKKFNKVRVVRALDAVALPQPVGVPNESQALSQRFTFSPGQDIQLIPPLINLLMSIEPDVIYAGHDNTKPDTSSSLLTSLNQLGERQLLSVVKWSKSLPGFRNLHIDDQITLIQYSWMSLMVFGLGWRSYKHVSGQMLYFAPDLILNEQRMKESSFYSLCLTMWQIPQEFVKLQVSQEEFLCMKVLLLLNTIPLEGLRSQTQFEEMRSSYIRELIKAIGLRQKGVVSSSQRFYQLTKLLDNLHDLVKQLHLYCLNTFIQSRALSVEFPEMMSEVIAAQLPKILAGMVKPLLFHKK
Description: A T225 flask of CV-1 cells at a density of 80% confluency was washed with PBS, detached from the flask using 0.25% trypsin and counted using a Sysmex KX-21N. Cells were diluted in DMEM containing 10% Hyclone, 2 mM L-Glutamate and 1% Pen/Strep at 140 cells/μl and transduced with 10% PRb-BacMam and 10% MMTV-BacMam. […] of suspension cells were dispensed to each well of white Nunc 384-well plates, containing compounds at the required concentration. After 24 h 10 μl of Steadylite were added to each well of the plates. Plates were incubated in the dark for 10 min before reading them on a Viewlux reader. Dose response curves were constructed from which pEC50 values were estimated.

Row | Compound | Emax [1] [%] | IC50 [1] [µM] | Emax [2] [%] | IC50 [3] [µM] | Kp at 5 min [4] | EC50 [5] [µM]
1 | Nc1c(C(=O)NCC(O)(CNC(=O)c2c(Cl)cccc2C(F)(F)F)C(F)(F)F)cnn1-c1ccc(F)cc1 (racemic) [Example 44 (racemic), 5-Amino-N-{2-[({[2-chloro-6-(trifluoromethyl)phenyl]carbonyl}amino)methyl]-3,3,3-trifluoro-2-hydroxypropyl}-1-(4-fluorophenyl)-1H-pyrazole-4-carboxamide] | ≥ 20 | < 1 | 20 to 85 | ≤ 0.316 | – | –
2 | Nc1c(C(=O)NCC(O)(CN(CCF)C(=O)c2c(F)cccc2Cl)C(F)(F)F)cnn1-c1ccc(F)cc1 (racemic) [Example 29 (racemic), 5-amino-N-(2-{[[(2-chloro-6-fluorophenyl)carbonyl](2-fluoroethyl)amino]methyl}-3,3,3-trifluoro-2-hydroxypropyl)-1-(4-fluorophenyl)-1H-pyrazole-4-carboxamide] | > 85 | < 1 | > 85 | ≤ 0.316 | – | –
3 | CCN(CC(O)(CNC(=O)c1cnn(-c2ccc(F)cc2)c1N)C(F)(F)F)C(=O)c1c(F)cccc1F (single isomer, unassigned) [Example 5 Enantiomer 1, 5-Amino-N-(2-{[[(2,6-difluorophenyl)carbonyl](ethyl)amino]methyl}-3,3,3-trifluoro-2-hydroxypropyl)-1-(4-fluorophenyl)-1H-pyrazole-4-carboxamide] | – | < 1 | – | ≤ 0.316 | ≥ 0.1 | > 1
4 | Nc1c(C(=O)NCC(O)(CNC(=O)c2c(F)cccc2C(F)(F)F)C(F)(F)F)cnn1-c1ccc(F)cc1 (single isomer, unassigned) [Example 19 Enantiomer 1, 5-amino-1-(4-fluorophenyl)-N-{3,3,3-trifluoro-2-[({[2-fluoro-6-(trifluoromethyl)phenyl]carbonyl}amino)methyl]-2-hydroxypropyl}-1H-pyrazole-4-carboxamide] | ≥ 20 | < 1 | 20 to 85 | ≤ 0.316 | – | –
5 | Nc1c(C(=O)NCC(O)(CNC(=O)c2c(C(F)(F)F)cccc2C(F)(F)F)C(F)(F)F)cnn1-c1ccc(F)cc1 (single isomer, unassigned) [Example 15 Enantiomer 1, 5-amino-N-{2-[({[2,6-bis(trifluoromethyl)phenyl]carbonyl}amino)methyl]-3,3,3-trifluoro-2-hydroxypropyl}-1-(4-fluorophenyl)-1H-pyrazole-4-carboxamide] | ≥ 20 | – | 20 to 85 | ≤ 0.316 | – | > 1
6 | CCN(CC(O)(CNC(=O)c1cnn(-c2ccccc2Cl)c1N)C(F)(F)F)C(=O)c1c(F)cccc1F (racemic) [Example 40 (racemic), 5-amino-1-(2-chlorophenyl)-N-(2-{[[(2,6-difluorophenyl)carbonyl](ethyl)amino]methyl}-3,3,3-trifluoro-2-hydroxypropyl)-1H-pyrazole-4-carboxamide] | > 85 | < 1 | > 85 | ≤ 0.316 | – | –

From patent publication US8247377B2, “Non-steroidal glucocorticoid inhibitors and their use in treating inflammation, allergy and auto-immune conditions” (Glaxo Group Limited, priority 2006, dated 2012)
